Measured values published in patent US20090246169A1, “INDOLOPYRIDINES AS EG5 KINESIN MODULATORS” (priority 2006, published 2009).

Tested on: RKO p21 colon adenocarcinoma cells, uninduced (proliferating)
Assay: Alamar Blue cell viability assay, RKO p21 uninduced (proliferating)
Type: cell-based
Details: Homo sapiens; anti-proliferative/cytotoxic activity, 72 hours, without Ponasterone A; read-out: −log EC50 [mol/l] RKO p21 uninduced (proliferating) (converted)
Method: The anti-proliferative/cytotoxic activity of the compounds described herein can be tested on subclones of RKO human colon adenocarcinoma cells (Schmidt et al., Oncogene 19, 2423-2429; 2000) using the Alamar Blue cell viability assay (described in O'Brien et al. Eur J Biochem 267, 5421-5426, 2000). The compounds are dissolved as 10 mM solutions in DMSO and subsequently diluted in semi-logarithmic steps. DMSO dilutions are further diluted 1:100 into Dulbecco's modified Eagle's medium (DMEM) containing 10% fetal calf serum to a final concentration twice as much as the final concentration in the test. RKO subclones are seeded into 96 well flat bottom plates at a density of 4000 cells per well in a volume of 50 μl per well. 24 hours after seeding the 50 μl each of the compound dilutions in DMEM medium are added into each well of the 96 well plate. Each compound dilution is tested as triplicates. Wells containing untreated control cells are filled with 50 μl DMEM medium containing 1% DMSO. The cells are then incubated with the substances for 72 hours at 37° C. in a humidified atmosphere containing 5% carbon dioxide. To determine the viability of the cells, 10 μl of an Alamar Blue solution (Biosource) are added and the fluorescence is measured at an extinction of 544 nm and an emission of 590 nm. For the calculation of the cell viability the emission value from untreated cells is set as 100% viability and the emission rates of treated cells are set in relation to the values of untreated cells. Viabilities are expressed as % values. The Graphpad Prism program is used for the calculation of EC50 values for anti-proliferative/cytotoxic activity out of the obtained dose-response curves.
To determine the cell cycle specific mode of action, subclones of RKO colon adenocarcinoma cells (RKOp21 or RKOp27 as described by Schmidt et al. in Oncogene 19, 2423-2429; 2000) are seeded into 96 well flat bottom plates at a density of 16000 cells per well in a volume of 50 μl per well in DMEM growth medium with 10% FCS containing 10 μM Ponasterone A. 24 hours after seeding the 50 μl each of the compound dilutions in DMEM medium are added into each well of the 96-well plate. Each compound dilution is tested as triplicates. Wells containing untreated control cells are filled with 50 μl DMEM medium containing 1% DMSO. The cells are then incubated with the substances for 72 hours at 37° C. in a humidified atmosphere containing 5% carbon dioxide. To determine the viability of the cells, 10 μl of an Alamar Blue solution (Biosource) are added and the fluorescence is measured at an extinction of 544 nm and an emission of 590 nm. For the calculation of the cell viability the emission value from untreated cells is set as 100% viability and the emission rates of treated cells are set in relation to the values of untreated cells. Viabilities are expressed as % values. The Graphpad Prism program (GraphPad Software, Inc) is used for the calculation of EC50 values out of the obtained dose-response curves. Viability is compared of proliferating cells grown in the absence of the inducer Ponasterone A, versus viability of cells arrested by the expression of ectopic p27Kip1 induced by Ponasterone A.
Representative values for anti-proliferation/cytotoxicity [measured as −log EC50 (mol/l)] determined in the aforementioned assays follow from the following tables B1 and B2, in which the numbers of the compounds correspond to the numbers of the examples.

Structure (SMILES)	EC50
CNCCCN1C(=O)N2[C@H](c3ccccc3)c3[nH]c4ccc(OC)cc4c3C[C@@]2(C)C1=O (racemic) [Example 73, (3aSR, 10RS)-6-Methoxy-3a-methyl-2-(3-methylamino-propyl)-10-phenyl-3a,4,9,10-tetrahydro-2,9,10a-triaza-cyclopenta[b]fluorene-1,3-dione]	≤ 1 µM
COc1ccc2[nH]c3c(c2c1)C[C@@]1(C)C(=O)N(CCN(C)CCO)C(=O)N1[C@@H]3c1ccccc1 (racemic) [Example 30, (3aSR, 10RS)-2-{2-[(2-Hydroxy-ethyl)-methyl-amino]-ethyl}-6-methoxy-3a-methyl-10-phenyl-3a,4,9,10-tetrahydro-2,9,10a-triaza-cyclopenta[b]fluorene-1,3-dione]	≤ 1 µM
C=CCNCCN1C(=O)N2[C@H](c3ccccc3)c3[nH]c4ccc(OC)cc4c3C[C@@]2(C)C1=O (racemic) [Example 28, (3aSR, 10RS)-2-(2-Allyl-amino-ethyl)-6-methoxy-3a-methyl-10-phenyl-3a,4,9,10-tetrahydro-2,9,10a-triaza-cyclopenta[b]fluorene-1,3-dione]	≤ 1 µM
COc1ccc2[nH]c3c(c2c1)C[C@@]1(C)C(=O)N(CCCN(C)C)C(=O)N1[C@@H]3c1ccccc1 (racemic) [Example 45, (3aSR, 10RS)-2-(3-Dimethylamino-propyl)-6-methoxy-3a-methyl-10-phenyl-3a,4,9,10-tetrahydro-2,9,10a-triaza-cyclopenta[b] fluorene-1,3-dione]	≤ 1 µM
COc1ccc2[nH]c3c(c2c1)C[C@@]1(C)C(=O)N(CCCN2CCC(C)CC2)C(=O)N1[C@@H]3c1ccccc1 (racemic) [Example 66, (3aSR, 10RS)-6-Methoxy-3a-methyl-2-[3-(4-methyl-piperidin-1-yl)-propyl]-10-phenyl-3a,4,9,10-tetrahydro-2,9,10a-triaza-cyclopenta[b] fluorene-1,3-dione]	≤ 1 µM
CCN(CC)CCCN1C(=O)N2[C@H](c3ccccc3)c3[nH]c4ccc(OC)cc4c3C[C@@]2(C)C1=O (racemic) [Example 54, (3aSR, 10RS)-2-(3-Diethyl-amino-propyl)-6-methoxy-3a-methyl-10-phenyl-3a,4,9,10-tetrahydro-2,9,10a-triaza-cyclopenta[b]fluorene-1,3-dione]	≤ 1 µM
COc1ccc2[nH]c3c(c2c1)C[C@@]1(C)C(=O)N(CCNCC(C)C)C(=O)N1[C@@H]3c1ccccc1 (racemic) [Example 35, (3aSR, 10RS)-2-(2-Isobutyl-amino-ethyl)-6-methoxy-3a-methyl-10-phenyl-3a,4,9,10-tetrahydro-2,9,10a-triaza-cyclopenta[b]fluorene-1,3-dione]	≤ 1 µM
COc1ccc2[nH]c3c(c2c1)C[C@@]1(C)C(=O)N(CCCN(C)C(C)C)C(=O)N1[C@@H]3c1ccccc1 (racemic) [Example 59, (3aSR, 10RS)-2-[3-(Isopropyl-methyl-amino)-propyl]-6-methoxy-3a-methyl-10-phenyl-3a,4,9,10-tetra-hydro-2,9,10a-triaza-cyclo-penta[b]fluorene-1,3-dione]	≤ 1 µM
COc1ccc2[nH]c3c(c2c1)C[C@@]1(C)C(=O)N(CCCn2ccnc2)C(=O)N1[C@@H]3c1ccccc1 (racemic) [Example 63, (3aSR, 10RS)-2-(3-Imidazol-1-yl-propyl)-6-methoxy-3a-methyl-10-phenyl-3a,4,9,10-tetrahydro-2,9,10a-triaza-cyclopenta[b]fluorene-1,3-dione]	≤ 1 µM
COCCNCCCN1C(=O)N2[C@H](c3ccccc3)c3[nH]c4ccc(OC)cc4c3C[C@@]2(C)C1=O (racemic) [Example 70, (3aSR, 10RS)-6-Methoxy-2-[3-(2-methoxy-ethylamino)-propyl]-3a-methyl-10-phenyl-3a,4,9,10-tetrahydro-2,9,10a-triaza-cyclopenta[b]fluorene-1,3-dione]	≤ 1 µM
CC[C@@]12Cc3c([nH]c4ccc(OC)cc34)[C@@H](c3ccccc3)N1C(=O)N(CCCN(C)C)C2=O (racemic) [Example 6, (3aSR,10RS)-2-(3-Dimethylamino-propyl)-3a-ethyl-6-methoxy-10-phenyl-3a,4,9,10-tetrahydro-2,9,10a-triaza-cyclopenta[b]fluorene-1,3-dione]	≤ 1 µM
COc1ccc2[nH]c3c(c2c1)C[C@@]1(C)C(=O)N(CCCN2CCCCC2)C(=O)N1[C@@H]3c1ccccc1 (racemic) [Example 65, (3aSR, 10RS)-6-Methoxy-3a-methyl-10-phenyl-2-(3-piperidin-1-yl-propyl)-3a,4,9,10-tetrahydro-2,9,10a-triaza-cyclopenta[b]fluorene-1,3-dione]	≤ 1 µM
CCN(CC)CCN1C(=O)N2[C@H](c3ccccc3)c3[nH]c4ccc(OC)cc4c3C[C@@]2(C)C1=O (racemic) [Example 41, (3aSR, 10RS)-2-(2-Diethyl-amino-ethyl)-6-methoxy-3a-methyl-10-phenyl-3a,4,9,10-tetrahydro-2,9,10a-triaza-cyclopenta[b]fluorene-1,3-dione]	≤ 1 µM
COc1ccc2[nH]c3c(c2c1)C[C@@]1(C)C(=O)N(CCN2CCC2)C(=O)N1[C@@H]3c1ccccc1 (racemic) [Example 16, (3aSR,10RS)-2-(2-Azetidin-1-yl-ethyl)-6-methoxy-3a-methyl-10-phenyl-3a,4,9,10-tetrahydro-2,9,10a-triaza-cyclopenta[b]fluorene-1,3-dione]	≤ 1 µM
CCN(CCO)CCCN1C(=O)N2[C@H](c3ccccc3)c3[nH]c4ccc(OC)cc4c3C[C@@]2(C)C1=O (racemic) [Example 55, (3aSR, 10RS)-2-{3-[Ethyl-(2-hydroxy-ethyl)-amino]-propyl}-6-methoxy-3a-methyl-10-phenyl-3a,4,9,10-tetrahydro-2,9,10a-triaza-cyclopenta[b]fluorene-1,3-dione]	≤ 1 µM
COc1ccc2[nH]c3c(c2c1)C[C@@]1(C)C(=O)N(CCCN(C)CCO)C(=O)N1[C@@H]3c1ccccc1 (racemic) [Example 46, (3aSR, 10RS)-2-{3-[(2-Hydroxy-ethyl)-methyl-amino]-propyl}-6-methoxy-3a-methyl-10-phenyl-3a,4,9,10-tetrahydro-2,9,10a-triaza-cyclopenta[b]fluorene-1,3-dione]	≤ 1 µM
C#CCNCCN1C(=O)N2[C@H](c3ccccc3)c3[nH]c4ccc(OC)cc4c3C[C@@]2(C)C1=O (racemic) [Example 29, (3aSR, 10RS)-6-Methoxy-3a-methyl-10-phenyl-2-(2-prop-2-ynylamino-ethyl)-3a,4,9,10-tetrahydro-2,9,10a-triaza-cyclopenta[b]fluorene-1,3-dione]	≤ 1 µM
C=CCNCCCN1C(=O)N2[C@H](c3ccccc3)c3[nH]c4ccc(OC)cc4c3C[C@@]2(C)C1=O (racemic) [Example 77, (3aSR, 10RS)-2-(3-Allyl-amino-propyl)-6-methoxy-3a-methyl-10-phenyl-3a,4,9,10-tetrahydro-2,9,10a-triaza-cyclopenta[b]fluorene-1,3-dione]	≤ 1 µM
COc1ccc2[nH]c3c(c2c1)C[C@@]1(C)C(=O)N(CCCN2CCCC2)C(=O)N1[C@@H]3c1ccccc1 (racemic) [Example 62, (3aSR, 10RS)-6-Methoxy-3a-methyl-10-phenyl-2-(3-pyrrolidin-1-yl-propyl)-3a,4,9,10-tetrahydro-2,9,10a-triaza-cyclopenta[b]fluorene-1,3-dione]	≤ 1 µM
